This note sets out measurements from publication PMC6143478, “Lipophilic activated ester prodrug approach for drug delivery to the intestinal lymphatic system” (Journal of Controlled Release, 2018).

Entries after “also recorded” stand apart in the source; their conditions may differ.

The subject of one data set is human chylomicrons (CM). The experiment in a line: Ex vivo association with human plasma-derived chylomicrons. It counts as in vitro ADME. The conditions noted are these: in words; for association with human chylomicrons (CM): 1.755 μM, 37 °C, 1 h, relative to parent drug. The source says:
The protocol for preparation of human plasma-derived CM emulsion was approved by the Faculty of Medicine and Health Sciences Research Ethics Committee, Queens Medical Centre, Nottingham University Hospitals (BT12102015 CBS SoP). Healthy male volunteers of 19–40 years old and with body mass index of 18.5–25.0 were enrolled in the study after providing informed consent. The participants were excluded if any medication was used within one week prior to enrolment. On the morning of the study, participants received a high-fat meal (equivalent to a full English breakfast). Between 3 and 4 h following breakfast, 30 mL of blood was collected using heparinised tubes (Vacutainer® Blood Collection Tubes) and centrifuged (800 g, 10 min, 15 °C) to obtain plasma.
CM separation was performed as previously reported with minor modifications. Briefly, KBr (0.57 g) was mixed with 4 mL of plasma to yield density of 1.1 g/mL. PBS with densities of 1.006, 1.019, and 1.063 g/mL were prepared by adding appropriate amounts of KBr. These PBS of different densities were layered on top of the plasma to build density gradient layers in polyallomer ultracentrifuge tubes. The samples were then centrifuged at 268,350 g for 35 min at 15 °C using an ultracentrifuge (SORVALL® TH-641 Rotor, Thermo Fisher Scientific, UK). Following ultracentrifugation, approximately 1 mL of the upper layer containing CM was collected. TG concentration of CM emulsion was assessed using the TG enzymatic kit (Sigma Aldrich, Dorset, UK). TG concentration of the emulsion was adjusted to 100 mg/dL by diluting with PBS of 1.006 g/mL density. The CM emulsion was stored at 4 °C until the association assay (˂24 h).
(§1) The association of the compounds with artificial lipid particle emulsion and human CM was assessed using previously reported methodology with minor modifications. Briefly, 1 mL of artificial lipid particle or CM emulsions (TG concentration 100 mg/dL) was used for the association assay. The emulsion was spiked with stock solutions of tested compounds (in acetonitrile) to give a final concentration of 1.755 μM. The reaction mixtures were incubated at 37 °C for 1 h with magnetic stirring at 300 rpm. Following the incubation, density gradient ultracentrifugation was applied as described above to isolate the artificial lipid particles or CM associated with the tested compounds from the rest of the experimental medium. All experiments were conducted in quintuplicates or above.

Data set [1] deals with esterase from porcine liver. Briefly: Prodrug conversion assay in FaSSIF with added esterase activity. In kind it is in vitro ADME. The conditions noted are these: esterase 20 IU/mL, 10 μM, 37 °C, 4 h; in words. The method, then:
BEX was purchased from LC Laboratories (Woburn, MA, USA). RA (all-trans), Intralipid®, esterase from porcine liver, sodium taurocholate (NaTc), NaCl, NaF and lecithin were obtained from Sigma (Gillingham, UK). Rat plasma was purchased from Sera Laboratories (West Sussex, UK). Thiazolyl blue tetrazolium bromide (MTT), sesame oil, polyethylene glycol 400 (PEG400) and all solvents (HPLC grade or higher) were purchased from Fisher Scientific (Loughborough, UK).
The prodrugs were tested for their stability and conversion into their corresponding active drug using fasted state simulated intestinal fluid (FaSSIF) with added esterase enzyme activity (20 IU/mL), rat plasma, and postprandial rat lymph. The FaSSIF was prepared as previously described in the literature. The medium was pre-heated to 37 °C prior to the assay for 5 min. […] When the stability of the artificial emulsion-associated prodrugs was tested in plasma, the association of compounds with artificial emulsion was performed prior to stability experiments and the concentrations of the compounds in the associated emulsion were measured. […] Samples were withdrawn at pre-determined time points, and the reaction was terminated by addition of acetonitrile. […] Half-life of active drug release (t1/2) was calculated by the following equation: t1/2 = −0.693/k. […]

Data set [2] can be described thus: Biodistribution to mesenteric lymph nodes (MLN) and lymph following oral administration in rats. In kind it is in vivo. As to conditions: rat. The method, then:
The protocols for pharmacokinetic and biodistribution experiments in this study were reviewed and approved by the University of Nottingham Ethical Review Committee in accordance with the Animals [Scientific Procedures] Act 1986. Male Sprague Dawley rats (Charles River Laboratories, UK) weighing 350–380 g were used. The animals were housed in the Bio Support Unit, University of Nottingham. Continuous lymph collection was performed according to a protocol approved by the Institutional Animal Care and Use Committee at Rutgers, The State University of New Jersey. Male Sprague Dawley rats (Envigo, Inc., NJ, USA) weighing 300–350 g were used for the continuous lymph collection. Animals were allowed free access to food and water and were acclimatised for at least 6 days prior to any procedures at both institutions in a controlled-temperature environment with 12 h light/dark cycles.
Formulations were prepared as described in the above pharmacokinetic study and were delivered by an oral gavage. Animals were euthanised at pre-determined time points. Blood was collected from the posterior vena cava and lymph samples were taken from the mesenteric lymph duct. MLNs were dissected and collected as previously described. The MLNs were isolated from surrounding tissue with care not to compromise the integrity of the lymph nodes. The MLNs were homogenised (POLYTRON® PT 10–35 GT, Kinematica AG, Luzern, Switzerland) with 10 mg/mL NaF in water (1,2, w/v) on an ice bath prior to sample preparation for HPLC analysis.
A combination of protein precipitation and liquid-liquid extraction was applied to samples prior to HPLC injection. To 100 μL sample, 300 μL of acetonitrile was added for protein precipitation and then 300 μL of pH modifier was added when necessary (Supplementary Material Table S2). […] The organic layer was separated and evaporated under N2 gas. Reconstitution solvent (100 μL) was used as detailed in Supplementary Material Table S2 and 40 μL was injected into the HPLC-UV system. […] Therefore, storage and preparation of all samples were performed within the time frame and conditions of confirmed stability.
The HPLC-UV system consisting of a separation module (Waters Alliance 2695) equipped with a UV detector (Waters 996) was used for analysis. Samples in the autosampler were maintained at 4 °C and the column at 40 °C. The stationary and mobile phases were used as specified in Supplementary Material Table S2. BEX and its prodrugs were detected at 259 nm and RA and its prodrugs at 357 nm.

Data set [3] is described as follows: Prodrug conversion assay in rat plasma. In kind it is in vitro ADME. The protocol: (§2) The prodrugs were tested for their stability and conversion into their corresponding active drug using fasted state simulated intestinal fluid (FaSSIF) with added esterase enzyme activity (20 IU/mL), rat plasma, and postprandial rat lymph. The FaSSIF was prepared as previously described in the literature. The medium was pre-heated to 37 °C prior to the assay for 5 min. The experiment was initiated by spiking stock solutions of prodrugs to give a final concentration of 10 μM of the prodrugs in the medium. When the stability of the artificial emulsion-associated prodrugs was tested in plasma, the association of compounds with artificial emulsion was performed prior to stability experiments and the concentrations of the compounds in the associated emulsion were measured. The emulsion was then spiked to give a concentration of 10 μM of the prodrugs in plasma. The reaction mixtures were incubated at 37 °C and shaken at 200 rpm on a temperature-controlled orbital shaker (Thermo Scientific MaxQ4000, Waltham, MA, USA) for 4 h. Samples were withdrawn at pre-determined time points, and the reaction was terminated by addition of acetonitrile. The samples were then subjected to sample preparation and analysis as described below. The natural log percentage of the prodrug concentration was plotted against incubation time, and the slope (k) was obtained from the plot. Half-life of active drug release (t1/2) was calculated by the following equation: t1/2 = −0.693/k. All experiments were conducted in triplicate.

Data set [4] can be described thus: Prodrug conversion assay in postprandial rat lymph. As to conditions: CM-rich postprandial rat lymph, ex vivo; relative to rat plasma. In kind it is in vitro ADME. The method, then: as §2, with “The natural log percentage of the prodrug concentration was plotted against incubation time, and the slope (k) was obtained from the plot.” left out, “All experiments were conducted in triplicate.” left out

Data set [5] is described as follows: In vitro association with artificial lipid particle emulsion prepared from Intralipid. In kind it is in vitro ADME. As to conditions: TG 100 mg/dL, 1.755 μM, 37 °C, 1 h, in words, relative to parent drug. The protocol: To prepare the artificial lipid particle emulsion, Intralipid® 20% (Sigma, Gillingham, UK) was diluted using phosphate buffered saline (PBS) to yield 100 mg/dL of triglyceride (TG) concentration. A TG enzymatic kit (Sigma Aldrich, Dorset, UK) was used to monitor the TG concentration by following manufacturer's instructions.
as §1

For the compound `C=C(c1ccc(C(=O)OC)cc1)c1cc2c(cc1C)C(C)(C)CCC2(C)C` [prodrug 1], in the data set with human chylomicrons (CM), the “association with human chylomicrons (CM)” value is given as “equally high affinity to CM”.

With `C=C(c1ccc(C(=O)OCCC)cc1)c1cc2c(cc1C)C(C)(C)CCC2(C)C` [prodrug 4], in the data set with human chylomicrons (CM), the “association with human chylomicrons (CM)” value is “equally high affinity to CM”.

For the compound `C=C(c1ccc(C(=O)OCCCCCCCC)cc1)c1cc2c(cc1C)C(C)(C)CCC2(C)C` [prodrug 9], the “conversion to BEX in FaSSIF with esterase” value in data set [1] was “too slow to be detected”.

`C=C(c1ccc(C(=O)OC(COC(=O)CCCCCCCCCCCCCCC)COC(=O)CCCCCCCCCCCCCCC)cc1)c1cc2c(cc1C)C(C)(C)CCC2(C)C` [prodrug 13]: in data set [2] (BEX analyte, dose equivalent to 10 mg/kg BEX, in words), the “concentrations of BEX in intestinal lymphatics (MLNs, lymph) relative to plasma” value is “comparable to that in plasma”. Also, the “intact form of prodrug in samples” value in data set [2] (plasma, MLN, lymph, any time point) was “not found in any sample at any time point”. In data set [3] (in vitro, 10 μM, 37 °C, 4 h, in words), the “conversion to BEX in rat plasma” value is “BEX was not released; also recorded: not observed”.

In the case of `C=C(c1ccc(C(=O)OC(C(C)C)C(C)C)cc1)c1cc2c(cc1C)C(C)(C)CCC2(C)C` [prodrug 18], in data set [1], the “conversion to BEX in FaSSIF with esterase” value is “too slow to be detected”.

With `C=C(c1ccc(C(=O)OCCN(C(C)C)C(C)C)cc1)c1cc2c(cc1C)C(C)(C)CCC2(C)C` [prodrug 24], the “difference in affinity for artificial emulsion versus natural human CM” value with human chylomicrons (CM) was “significant differences”.

In general, half-life refers to the time needed for the level to fall by half in the phase considered. Regarding `C=C(c1ccc(C(=O)OCc2oc(=O)oc2C)cc1)c1cc2c(cc1C)C(C)(C)CCC2(C)C` [prodrug 25], the “conversion of emulsion-associated form of prodrug in rat plasma” value in data set [3] (prodrug incorporated into Intralipid lipid particles, 10 μM, relative to free form) is “delayed conversion”. For the same compound, the half-life at 10 μM in data set [3] (rat, plasma, in vitro, 37 °C, free form, read-out: half-life of active drug release in rat plasma) is 8 min. For the same compound, the “half-life of active drug release in postprandial lymph” value in data set [4] was “prolonged”.

In the case of `CCOC(=O)/C=C(C)/C=C/C=C(C)/C=C/C1=C(C)CCCC1(C)C` [prodrug 26], in the data set on human chylomicrons (CM), the “association with human chylomicrons (CM)” value is reported as “improved association”. For the same compound, in data set [5], the “association with artificial emulsion” value is given as “improved association”.

As to `CC1=C(/C=C/C(C)=C/C=C/C(C)=C/C(=O)OCc2oc(=O)oc2C)C(C)(C)CCC1` [prodrug 27], in the data set on human chylomicrons (CM), the “association with human chylomicrons (CM)” value is given as “improved association”. The “association with artificial emulsion” value in data set [5] was “improved association”.
